# Target: MAPK14 (human) (UniProt Q16539)
# Assay: Inhibition of MAPK14 Kinase Activity
# Sequence of MAPK14 (human) (Q16539 whole entry, looked up): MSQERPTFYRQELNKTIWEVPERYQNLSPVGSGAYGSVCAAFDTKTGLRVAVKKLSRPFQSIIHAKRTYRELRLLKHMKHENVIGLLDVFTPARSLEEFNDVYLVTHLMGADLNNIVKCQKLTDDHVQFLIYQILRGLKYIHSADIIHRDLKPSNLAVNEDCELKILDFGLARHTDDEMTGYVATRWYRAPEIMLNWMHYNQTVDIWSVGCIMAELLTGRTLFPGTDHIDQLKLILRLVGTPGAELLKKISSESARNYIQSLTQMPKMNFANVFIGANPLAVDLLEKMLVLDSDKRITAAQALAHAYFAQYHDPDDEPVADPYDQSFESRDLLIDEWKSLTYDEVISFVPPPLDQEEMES
row,Compound,IC50
1,Cc1cccc(C(=O)NCc2nc(-c3ccc(F)cc3)c(-c3nc(C(=O)NC(C)C)cs3)o2)c1[N+](=O)[O-],≤ 1000 nM
2,CC(C)NC(=O)c1csc(-c2oc(CNC(=O)c3c4ccccc4cc4ccccc34)nc2-c2ccc(F)cc2)n1,≤ 1000 nM
3,CC(C)NC(=O)c1csc(-c2c(-c3ccc(F)cc3)n[nH]c2C2CCN(C(=O)c3cccnc3Cl)CC2)n1,≤ 1000 nM
4,CC(C)NC(=O)c1csc(-c2oc(CNC(=O)c3cc(O)c(O)c(O)c3)nc2-c2ccc(F)cc2)n1,≤ 1000 nM
5,CC(C)NC(=O)c1csc(-c2oc(CNC(=O)c3ccc(-c4ccc(O)cc4)cc3)nc2-c2ccc(F)cc2)n1,≤ 1000 nM
6,CC(C)NC(=O)c1csc(-c2oc(CN3CCN(C(=O)c4ccccc4Cc4ccccc4)CC3)nc2-c2ccc(F)cc2)n1,≤ 1000 nM
7,Cc1onc(-c2ccc(F)cc2Cl)c1-c1ccn(C(=O)NC(C)C)n1,≤ 1000 nM
8,CC(C)NC(=O)c1csc(-c2oc(CN3CCN(C(=O)c4ccc(-c5ccc(O)cc5)cc4)CC3)nc2-c2ccc(F)cc2)n1,≤ 1000 nM
9,O=C(NCc1cccnc1)c1csc(-c2c(-c3ccc(F)cc3)n[nH]c2C2CCN(C(=O)CO)CC2)n1,≤ 1000 nM
10,CC(C)NC(=O)c1csc(-c2c(-c3ccc(F)cc3)n[nH]c2C2CCN(C(=O)c3ccccn3)CC2)n1,≤ 1000 nM
11,CC(C)NC(=O)c1coc(-c2c(-c3ccc(F)cc3)noc2C2CCNCC2)n1,≤ 1000 nM
12,O=C(NCc1ccccc1F)c1csc(-c2c(-c3ccc(F)cc3)n[nH]c2C2CCNCC2)n1,≤ 1000 nM
13,CC(CC(=O)N1CCN(Cc2nc(-c3ccc(F)cc3)c(-c3nc(C(=O)NC(C)C)cs3)o2)CC1)CC(C)(C)C (stereo not drawn),≤ 1000 nM
14,CC(C)NC(=O)c1csc(-c2oc(CNC(=O)c3ccc(F)cc3Cl)nc2-c2ccc(F)cc2)n1,≤ 1000 nM
15,CC(C)NC(=O)c1csc(-c2oc(CNC(=O)c3ccccc3C(F)(F)F)nc2-c2ccc(F)cc2)n1,≤ 1000 nM
16,COc1ccc(CNC(=O)c2csc(-c3c(-c4ccc(F)cc4)n[nH]c3C3CCNCC3)n2)cc1O,≤ 1000 nM
17,Cc1ccc(O)c(C(=O)N2CCN(Cc3nc(-c4ccc(F)cc4)c(-c4nc(C(=O)NC(C)C)cs4)o3)CC2)c1,≤ 1000 nM
18,CC(C)NC(=O)c1csc(-c2c(-c3ccc(F)cc3)noc2CN(C)CCc2ccccn2)n1,≤ 1000 nM
19,CC(C)NC(=O)c1csc(-c2oc(CNC(=O)c3cc4ccccc4s3)nc2-c2ccc(F)cc2)n1,≤ 1000 nM
20,CC(C)NC(=O)c1csc(-c2oc(CN3CCN(C(=O)c4ccccc4-c4ccccc4)CC3)nc2-c2ccc(F)cc2)n1,≤ 1000 nM
21,CC(C)NC(=O)c1csc(-c2oc(CN3CCN(C(=O)C=Cc4ccccc4O)CC3)nc2-c2ccc(F)cc2)n1,≤ 1000 nM
22,Cc1onc(-c2ccc(Cl)cc2)c1-c1cc(C)n(C(=O)NC(C)C)n1,≤ 1000 nM
23,CC(C)NC(=O)c1csc(-c2oc(CNC3CCN(Cc4ccccc4)C3)nc2-c2ccc(F)cc2)n1 (stereo not drawn),≤ 1000 nM
24,CC(C)NC(=O)c1csc(-c2oc(CN3CCN(C(=O)c4cc([N+](=O)[O-])ccc4O)CC3)nc2-c2ccc(F)cc2)n1,≤ 1000 nM
25,CC(C)NC(=O)c1csc(-c2oc(CNC(=O)c3cccnc3)nc2-c2ccc(F)cc2)n1,≤ 1000 nM
26,CC1=C(CCC(=O)N2CCN(Cc3nc(-c4ccc(F)cc4)c(-c4nc(C(=O)NC(C)C)cs4)o3)CC2)C=CCO1,≤ 1000 nM

row,Compound,IC50
1,CC(=O)Oc1cccc(C(=O)N2CCN(Cc3nc(-c4ccc(F)cc4)c(-c4nc(C(=O)NC(C)C)cs4)o3)CC2)c1,≤ 1000 nM
2,COc1ccc(C(=O)N2CCN(Cc3nc(-c4ccc(F)cc4)c(-c4nc(C(=O)NC(C)C)cs4)o3)CC2)c(O)c1,≤ 1000 nM
3,CC(C)Cc1ccc(C(C)C(=O)N2CCN(Cc3nc(-c4ccc(F)cc4)c(-c4nc(C(=O)NC(C)C)cs4)o3)CC2)cc1 (stereo not drawn),≤ 1000 nM
4,CC(C)NC(=O)c1csc(-c2oc(CNC(=O)c3cccnc3Cl)nc2-c2ccc(F)cc2)n1,≤ 1000 nM
5,COc1ccc(C=CC(=O)N2CCN(Cc3nc(-c4ccc(F)cc4)c(-c4nc(C(=O)NC(C)C)cs4)o3)CC2)cc1O,≤ 1000 nM
6,CC(C)NC(=O)c1csc(-c2oc(CN3CCN(C(=O)Cc4ccc(O)c(F)c4)CC3)nc2-c2ccc(F)cc2)n1,≤ 1000 nM
7,CC(C)NC(=O)c1csc(-c2oc(CNC(=O)c3cc(Cl)ccc3Cl)nc2-c2ccc(F)cc2)n1,≤ 1000 nM
8,CC(C)NC(=O)c1csc(-c2c(-c3ccc(F)cc3)noc2CNC(=O)C=Cc2ccccc2F)n1,≤ 1000 nM
9,COc1cc(OC)c(C(=O)N2CCN(Cc3nc(-c4ccc(F)cc4)c(-c4nc(C(=O)NC(C)C)cs4)o3)CC2)cc1OC,≤ 1000 nM
10,Cc1ccc(F)cc1C(=O)NCc1nc(-c2ccc(F)cc2)c(-c2nc(C(=O)NC(C)C)cs2)o1,≤ 1000 nM
11,CC(C)NC(=O)c1csc(-c2oc(CNC(=O)c3cc(O)ccc3O)nc2-c2ccc(F)cc2)n1,≤ 1000 nM
12,CC(C)NC(=O)c1csc(-c2oc(CNC(=O)Cc3cccc(O)c3)nc2-c2ccc(F)cc2)n1,≤ 1000 nM
13,CCN(Cc1onc(-c2ccc(F)cc2)c1-c1nc(C(=O)NC(C)C)cs1)C(Cc1ccccc1)c1ccco1 (stereo not drawn),≤ 1000 nM
14,COc1ccc(CNC(=O)c2csc(-c3c(-c4ccc(F)cc4)n[nH]c3C3CCNCC3)n2)cc1,≤ 1000 nM
15,CC(C)NC(=O)c1csc(-c2c(-c3ccc(F)cc3)noc2CNC(=O)C(F)(F)F)n1,≤ 1000 nM
16,CC(C)NC(=O)c1csc(-c2oc(CNC(=O)CCc3ccccc3O)nc2-c2ccc(F)cc2)n1,≤ 1000 nM
17,CC(=O)c1ccccc1C(=O)N1CCN(Cc2nc(-c3ccc(F)cc3)c(-c3nc(C(=O)NC(C)C)cs3)o2)CC1,≤ 1000 nM
18,COc1ccccc1C=CC(=O)N1CCN(Cc2nc(-c3ccc(F)cc3)c(-c3nc(C(=O)NC(C)C)cs3)o2)CC1,≤ 1000 nM
19,CC(C)NC(=O)c1csc(-c2oc(CNC(=O)c3cccc(O)c3O)nc2-c2ccc(F)cc2)n1,≤ 1000 nM
20,CC(C)NC(=O)c1csc(-c2c(-c3ccc(F)cc3)n[nH]c2C2CCN(C(=O)c3ccncc3Cl)CC2)n1,≤ 1000 nM
21,CC(C)NC(=O)c1csc(-c2oc(CN3CCN(C(=O)c4cn(C)cn4)CC3)nc2-c2ccc(F)cc2)n1,≤ 1000 nM
22,CC(C)NC(=O)c1csc(-c2oc(CNC(=O)c3ccncc3)nc2-c2ccc(F)cc2)n1,≤ 1000 nM
23,CC(C)NC(=O)c1csc(-c2oc(CNCc3ccccc3OC(F)(F)F)nc2-c2ccc(F)cc2)n1,≤ 1000 nM
24,COc1ccccc1CC(=O)N1CCN(Cc2nc(-c3ccc(F)cc3)c(-c3nc(C(=O)NC(C)C)cs3)o2)CC1,≤ 1000 nM
25,COc1cc(C(=O)NCc2nc(-c3ccc(F)cc3)c(-c3nc(C(=O)NC(C)C)cs3)o2)cc(OC)c1O,≤ 1000 nM
26,CC(=O)NC(Cc1ccc(O)cc1)C(=O)NCc1nc(-c2ccc(F)cc2)c(-c2nc(C(=O)NC(C)C)cs2)o1 (stereo not drawn),≤ 1000 nM

# More lines, now with the values ahead:
row,IC50,Compound
1,≤ 1000 nM,C#CCNC(=O)c1csc(-c2[nH]c(CN3CCNCC3)nc2-c2ccc(F)cc2)n1
2,≤ 1000 nM,CC(C)NC(=O)c1csc(-c2c(-c3ccc(F)cc3)noc2CNCCN2CCCC2)n1
3,≤ 1000 nM,Cc1nc(-c2ccc(F)cc2)c(-c2nc(C(=O)NC3CCN(Cc4ccccc4)C3)cs2)s1 (stereo not drawn)
4,≤ 1000 nM,Cc1nc(-c2ccc(F)cc2)c(-c2nc(C(=O)NCC3CCCO3)cs2)s1 (stereo not drawn)
5,≤ 1000 nM,Cc1nc(-c2ccc(F)cc2)c(-c2nc(C(=O)NCc3ccco3)cs2)s1
6,≤ 1000 nM,CC(C)NC(=O)c1csc(-c2c(-c3ccc(F)cc3)noc2C2CCNCC2)n1
7,≤ 1000 nM,CC(=O)Nc1ccc(NC(=O)c2csc(-c3sc(C)nc3-c3ccc(F)cc3)n2)cc1
8,≤ 1000 nM,Cc1nc(-c2ccc(F)cc2)c(-c2nc(C(=O)NCCN3CCCC3)cs2)s1
9,≤ 1000 nM,CC(C)NC(=O)c1csc(-c2c(-c3ccc(F)cc3)n[nH]c2C2CCN(C(=O)C(O)CCl)CC2)n1 (stereo not drawn)
10,≤ 1000 nM,Cc1nc(-c2ccc(F)cc2)c(-c2nc(C(=O)NC(CO)C(C)C)cs2)s1 (stereo not drawn)
11,≤ 1000 nM,Cc1nc(-c2ccc(F)cc2)c(-c2nc(C(=O)N3CCCC4CCCCC43)cs2)s1 (stereo not drawn)
12,≤ 1000 nM,Cc1nc(-c2ccc(F)cc2)c(-c2nc(C(=O)NCCCN3CCOCC3)cs2)s1
13,≤ 1000 nM,Cc1nc(-c2ccc(F)cc2)c(-c2nc(C(=O)NC3CCCCCC3)cs2)s1
14,≤ 1000 nM,Cc1nc(-c2ccc(F)cc2)c(-c2nc(C(=O)NCCCN3CCCC3=O)cs2)s1
15,≤ 1000 nM,COc1ccc(CCNC(=O)c2csc(-c3sc(C)nc3-c3ccc(F)cc3)n2)cc1
16,≤ 1000 nM,CC(C)NC(=O)c1csc(-c2c(-c3ccc(F)cc3)n[nH]c2C2CCN(C(=O)CO)CC2)n1
17,≤ 1000 nM,CC(C)NC(=O)c1csc(-c2oc(CN3CCN(C(=O)CC#N)CC3)nc2-c2ccc(F)cc2)n1
18,≤ 1000 nM,COc1ccc(CNC(=O)c2csc(-c3sc(C)nc3-c3ccc(F)cc3)n2)cc1

row,IC50,Compound
1,≤ 1000 nM,CC(C)NC(=O)c1csc(-c2oc(CBr)nc2-c2ccc(F)cc2)n1
2,≤ 1000 nM,Cc1cccc(CNC(=O)c2csc(-c3sc(C)nc3-c3ccc(F)cc3)n2)c1
3,≤ 1000 nM,CC(C)NC(=O)c1csc(-c2c(-c3ccc(F)cc3)noc2C2CCN(C(=O)CO)CC2)n1
4,≤ 1000 nM,Cc1nc(-c2ccc(F)cc2)c(-c2nc(C(=O)Nc3ccc4c(c3)OCCO4)cs2)s1
5,≤ 1000 nM,CC(C)NC(=O)c1csc(-c2c(-c3ccc(F)cc3)n[nH]c2C2CCN(C(=O)CC#N)CC2)n1
6,≤ 1000 nM,Cc1nc(-c2ccc(F)cc2)c(-c2nc(C(=O)Nc3ccc(C(F)(F)F)cc3C(F)(F)F)cs2)s1
7,≤ 1000 nM,Cc1nc(-c2ccc(F)cc2)c(-c2nc(C(=O)NCc3cccc(F)c3)cs2)s1
8,≤ 1000 nM,CNC(=O)c1csc(-c2sc(C)nc2-c2ccc(F)cc2)n1
9,≤ 1000 nM,Cc1cnc(CNC(=O)c2csc(-c3sc(C)nc3-c3ccc(F)cc3)n2)cn1
10,≤ 1000 nM,Cc1ccc(CNC(=O)c2csc(-c3sc(C)nc3-c3ccc(F)cc3)n2)cc1
11,≤ 1000 nM,COc1cccc(CCNC(=O)c2csc(-c3sc(C)nc3-c3ccc(F)cc3)n2)c1
12,≤ 1000 nM,Cc1nc(-c2ccc(F)cc2)c(-c2nc(C(=O)NC(C)C)cs2)[nH]1
13,≤ 1000 nM,CC(C)NC(=O)c1csc(-c2oc(CNC(=O)CC#N)nc2-c2ccc(F)cc2)n1
14,≤ 1000 nM,Cc1[nH]nc(-c2ccc(F)cc2)c1-c1nc(C(=O)NCC2CC2)cs1
15,≤ 1000 nM,O=C(NC1CCCC1)c1csc(-c2c(-c3ccc(F)cc3)ncn2C2CCNCC2)n1
16,≤ 1000 nM,Cc1nc(-c2ccc(F)cc2)c(-c2nc(C(=O)N[C@@H](C)c3ccccc3)cs2)s1
17,≤ 1000 nM,Cc1nc(-c2ccc(F)cc2)c(-c2nc(C(=O)Nc3ccccc3-c3ccccc3)cs2)s1
18,≤ 1000 nM,CCOc1ccccc1CNC(=O)c1csc(-c2sc(C)nc2-c2ccc(F)cc2)n1
